Reference: ChEMBL document CHEMBL1201862, “PubChem BioAssay data set” (2004)
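Grown in 96-well plates, cells were treated for 48 hours with each compound at five concentrations. Insufficient inhibition: endpoint recorded as highest concentration tested. GI50 = concentration required for 50% inhibition of growth.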 Calls of active or inactive are those of the source. Cut-off read from the data, not from the text of the source: active = GI50 up to about 1.1 µM and inactive = higher.

How the values were obtained:
Experiment in all cases: NCI anticancer screen, dose series, 48 h
[1] = tested on: KM12
[2] = tested on: CAKI-1
[3] = tested on: SF-295
[4] = tested on: SF-268
[5] = tested on: NCI-H23
[6] = tested on: SK-MEL-2
[7] = tested on: XF498
[8] = tested on: UACC-257
[9] = tested on: SNB-78
[10] = tested on: LXFL 529
[11] = tested on: RXF 393
[12] = tested on: HCC 2998
[13] = tested on: LOX IMVI
[14] = tested on: UO-31
[15] = tested on: HOP-62
[16] = tested on: UACC-62
[17] = tested on: Malme-3M
[18] = tested on: OVCAR-4
[19] = tested on: A498
[20] = tested on: NCI-H226
[21] = tested on: OVCAR-8
[22] = tested on: K562
[23] = tested on: SK-MEL-5
[24] = tested on: IGROV-1
[25] = tested on: SNB-75
[26] = tested on: SF-539
[27] = tested on: OVCAR-5
[28] = tested on: SK-MEL-28
[29] = tested on: A549
[30] = tested on: HOP-18
[31] = tested on: DMS-114
[32] = tested on: EKVX
[33] = tested on: SW-620
[34] = tested on: HOP-92
[35] = tested on: HCT-116
[36] = tested on: NCI-H460
[37] = tested on: 786-0
[38] = tested on: HT-29
[39] = tested on: DMS-273
[40] = tested on: U-251
[41] = tested on: OVCAR-3
[42] = tested on: COLO 205
[43] = tested on: SN12C
[44] = tested on: M19-MEL
[45] = tested on: M14
[46] = tested on: CCRF-CEM
[47] = tested on: HL-60
[48] = tested on: NCI-H522
[49] = tested on: RXF 631
[50] = tested on: DLD-1
[51] = tested on: RPMI-8226
[52] = tested on: MOLT-4
[53] = tested on: TK-10
[54] = tested on: SNB-19
[55] = tested on: SK-OV-3
[56] = tested on: HCT-15
[57] = tested on: ACHN
[58] = tested on: KM-20L2

With `CC(=O)Nc1ccccc1S(=O)(=O)c1ccccc1` as the compound, how does the GI50 [1] read?
The GI50 was > 100 µM (inactive).

What about the GI50 [2] of the same compound?
The GI50 was > 100 µM (inactive).

And the GI50 [3]?
The GI50 was > 100 µM (inactive).

And the GI50 [4]?
Its GI50 is > 100 µM (inactive).

And the GI50 [5]?
The GI50 was > 100 µM (inactive).

What about the GI50 [6] of the same compound?
The GI50 was > 100 µM (inactive).

And the GI50 [7]?
Its GI50 is 79.6 µM (inactive).

And the GI50 [8]?
The GI50 was > 100 µM (inactive).

What about the GI50 [9] of the same compound?
Its GI50 is > 100 µM (inactive).

And the GI50 [10]?
The GI50 was > 100 µM (inactive).

What about the GI50 [11] of the same compound?
Its GI50 is > 100 µM (inactive).

What about the GI50 [12] of the same compound?
The GI50 was > 100 µM (inactive).

And the GI50 [13]?
The GI50 was > 100 µM (inactive).

What about the GI50 [14] of the same compound?
Its GI50 is > 100 µM (inactive).

What about the GI50 [15] of the same compound?
Its GI50 is > 100 µM (inactive).

What about the GI50 [16] of the same compound?
Its GI50 is > 100 µM (inactive).

And the GI50 [17]?
Its GI50 is > 100 µM (inactive).

What about the GI50 [18] of the same compound?
Its GI50 is > 100 µM (inactive).

And the GI50 [19]?
The GI50 was > 100 µM (inactive).

What about the GI50 [20] of the same compound?
Its GI50 is > 100 µM (inactive).

What about the GI50 [21] of the same compound?
The GI50 was > 100 µM (inactive).

And the GI50 [22]?
Its GI50 is > 100 µM (inactive).

And the GI50 [23]?
The GI50 was > 100 µM (inactive).

What about the GI50 [24] of the same compound?
Its GI50 is > 100 µM (inactive).

And the GI50 [25]?
The GI50 was > 100 µM (inactive).

And the GI50 [26]?
Its GI50 is > 100 µM (inactive).

And the GI50 [27]?
The GI50 was 0.0409 µM (active).

And the GI50 [28]?
Its GI50 is > 100 µM (inactive).

And the GI50 [29]?
The GI50 was > 100 µM (inactive).

What about the GI50 [30] of the same compound?
The GI50 was > 100 µM (inactive).

And the GI50 [31]?
The GI50 was > 100 µM (inactive).

What about the GI50 [32] of the same compound?
Its GI50 is > 100 µM (inactive).

And the GI50 [33]?
Its GI50 is > 100 µM (inactive).

What about the GI50 [34] of the same compound?
The GI50 was 43.9 µM (inactive).

And the GI50 [35]?
The GI50 was > 100 µM (inactive).

And the GI50 [36]?
The GI50 was > 100 µM (inactive).

What about the GI50 [37] of the same compound?
The GI50 was > 100 µM (inactive).

And the GI50 [38]?
Its GI50 is > 100 µM (inactive).

And the GI50 [39]?
Its GI50 is > 100 µM (inactive).

And the GI50 [40]?
Its GI50 is > 100 µM (inactive).

What about the GI50 [41] of the same compound?
Its GI50 is > 100 µM (inactive).

And the GI50 [42]?
Its GI50 is > 100 µM (inactive).

And the GI50 [43]?
The GI50 was > 100 µM (inactive).

And the GI50 [44]?
The GI50 was > 100 µM (inactive).

And the GI50 [45]?
The GI50 was > 100 µM (inactive).

What about the GI50 [46] of the same compound?
Its GI50 is > 100 µM (inactive).

And the GI50 [47]?
The GI50 was > 100 µM (inactive).

What about the GI50 [48] of the same compound?
The GI50 was > 100 µM (inactive).

What about the GI50 [49] of the same compound?
The GI50 was > 100 µM (inactive).

And the GI50 [50]?
Its GI50 is > 100 µM (inactive).

What about the GI50 [51] of the same compound?
The GI50 was > 100 µM (inactive).

And the GI50 [52]?
Its GI50 is > 100 µM (inactive).

And the GI50 [53]?
The GI50 was > 100 µM (inactive).

And the GI50 [54]?
The GI50 was > 100 µM (inactive).

And the GI50 [55]?
The GI50 was > 100 µM (inactive).

And the GI50 [56]?
Its GI50 is > 100 µM.

What about the GI50 [57] of the same compound?
The GI50 was > 100 µM (inactive).

And the GI50 [58]?
Its GI50 is > 100 µM (inactive).
